From patent US7115621B2, “Chemical compounds” (Lilly Icos LLC, priority 2001, dated 2006)

Tests used:
[1] = molecular target: recombinant human PDE5 (Homo sapiens, UniProt O76074); experiment: Inhibitory effect on cGMP-PDE, one-step assay, human recombinant PDE5; format: biochemical; conditions: Table 1, Examples
Description: The compounds of structural formula (I) were tested for an ability to inhibit PDE5. The ability of a compound to inhibit PDE5 activity is related to the IC50 value for the compound, i.e., the concentration of inhibitor required for 50% inhibition of enzyme activity. The IC50 value for compounds of structural formula (I) were determined using recombinant human PDE5.
Recombinant production of human PDE1B, PDE2, PDE4A, PDE4B, PDE4C, PDE4D, PDE5, and PDE7 was carried out similarly to that described in Example 7 of U.S. Pat. No. 5,702,936, incorporated herein by reference, except that the yeast transformation vector employed, which is derived from the basic ADH2 plasmid described in Price et al., Methods in Enzymology, 185, pp. 308–318 (1990), incorporated yeast ADH2 promoter and terminator sequences and the Saccharomyces cerevisiae host was the protease-deficient strain BJ2-54 deposited on Aug. 31, 1998 with the American Type Culture Collection, Manassas, Virginia, under accession number ATCC 74465. Transformed host cells were grown in 2×SC-leu medium, pH 6.2, with trace metals, and vitamins. After 24 hours, YEP medium-containing glycerol was added to a final concentration of 2×YET/3% glycerol. Approximately 24 hr later, cells were harvested, washed, and stored at −70° C.
Phosphodiesterase activity of the preparations was determined as follows. PDE assays utilizing a charcoal separation technique were performed essentially as described in Loughney et al. (1996). In this assay, PDE activity converts [32P]cAMP or [32P]cGMP to the corresponding [32P]5′-AMP or [32P]5′-GMP in proportion to the amount of PDE activity present. The [32P]5′-AMP or [32P]5′-GMP then was quantitatively converted to free [32P]phosphate and unlabeled adenosine or guanosine by the action of snake venom 5′-nucleotidase. […] The assay was performed at 30° C. in a 100 μL reaction mixture containing (final concentrations) 40 mM Tris HCl (pH 8.0), 1 μM ZnSO4, 5 mM MgCl2, and 0.1 mg/mL bovine serum albumin (BSA). PDE enzyme was present in quantities that yield <30% total hydrolysis of substrate (linear assay conditions). The assay was initiated by addition of substrate (1 mM [32P]cAMP or cGMP), and the mixture was incubated for 12 minutes. Seventy-five (75) μg of Crotalus atrox venom then was added, and the incubation was continued for 3 minutes (15 minutes. total). The reaction was stopped by addition of 200 μL of activated charcoal (25 mg/mL suspension in 0.1 M NaH2PO4, pH 4). After centrifugation (750×g for 3 minutes) to sediment the charcoal, a sample of the supernatant was taken for radioactivity determination in a scintillation counter and the PDE activity was calculated.
Cell pellets (29 g) were thawed on ice with an equal volume of Lysis Buffer (25 mM Tris HCl, pH 8, 5 mM MgCl2, 0.25 mM DTT, 1 mM benzamidine, and 10 μM ZnSO4). Cells were lysed in a Microfluidizer® (Microfluidics Corp.) using nitrogen at 20,000 psi. The lysate was centrifuged and filtered through 0.45 μm disposable filters. The filtrate was applied to a 150 mL column of Q SEPHAROSE® FastFlow (Pharmacia). The column was washed with 1.5 volumes of Buffer A (20 mM Bis-Tris Propane, pH 6.8, 1 mM MgCl2, 0.25 mM DTT, 10 μM ZnSO4) and eluted with a step gradient of 125 mM NaCl in Buffer A followed by a linear gradient of 125–1000 mM NaCl in Buffer A. Active fractions from the linear gradient were applied to a 180 mL hydroxyapatite column in Buffer B (20 mM Bis-Tris Propane (pH 6.8), 1 mM MgCl2, 0.25 mM DTT, 10 μM ZnSO4, and 250 mM KCl). After loading, the column was washed with 2 volumes of Buffer B and eluted with a linear gradient of 0–125 mM potassium phosphate in Buffer B. Active fractions were pooled, precipitated with 60% ammonium sulfate, and resuspended in Buffer C (20 mM Bis-Tris Propane, pH 6.8, 125 mM NaCl, 0.5 mM DTT, and 10 μM ZnSO4). The pool was applied to a 140 mL column of SEPHACRYL® S-300 HR and eluted with Buffer C. Active fractions were diluted to 50% glycerol and stored at −20° C. […]

[2] = molecular target: T1, PDE5 (bovine aorta) (Bos taurus, UniProt Q28156); experiment: Inhibitory effect on cGMP-PDE, one-step assay, enzyme from bovine aorta; format: biochemical; conditions: Table 1, Examples; footnote 1) vs. bovine aorta
T1 construct: from tissue; host or cells: bovine aorta

IC50 [1] [µM]	melting point [°C]	IC50 [2] [µM]	SMILES
0.241	175 to 187		COC(=O)[C@H]1Cc2c([nH]c3ccccc23)[C@@H](c2ccc3c(c2)OCO3)N1C(=O)Oc1ccc([N+](=O)[O-])cc1 [Example 3, (−)-(1R,3R)-1-Benzo[1,3]dioxol-5-yl-1,3,4,9-tetrahydro-beta-carboline-2,3-dicarboxylic acid 3-methyl ester 2-(4-nitrophenyl)ester]
		0.49	COC(=O)CN1[C@@H](c2ccc(OC)cc2)c2[nH]c3ccccc3c2C[C@H]1C(=O)NCc1ccccc1 [Example 5]
0.502	163 to 165		CCCNC(=O)[C@H]1Cc2c([nH]c3ccccc23)[C@@H](c2ccc3c(c2)OCO3)N1C(C)=O [Example 8, (1R)-(+)-2-acetyl-1-benzo[1,3]dioxol-5-yl-2,3,4,9-tetrahydro-1H-β-carboline-3-carboxylic acid propylamide]
0.044	175 to 178		CN(C)C(=O)[C@H]1Cc2c([nH]c3ccccc23)[C@@H](c2ccc3c(c2)OCO3)N1C(=O)/C=C/c1ccccc1 [Example 1, (1R,3R)-1-benzo[1,3]dioxol-5-yl-2-(3-phenylacryloyl)-2,3,4,9-tetrahydro-1H-β-carboline-3-carboxylic acid dimethylamide]
		1	COc1ccc([C@@H]2c3[nH]c4ccccc4c3C[C@@H](C(=O)NCc3ccccc3)N2C(C)=O)cc1 [Example 7]
0.629	114 to 117		CCCCNC(=O)[C@H]1Cc2c([nH]c3ccccc23)[C@@H](c2ccc3c(c2)OCO3)N1C(=O)/C=C/c1ccccc1 [Example 11, (1R,3R)-(+)-1-benzo[1,3]dioxol-5-yl-2-(3-phenylacryloyl)-2,3,4,9-tetrahydro-1H-β-carboline-3-carboxylic acid butylamide]
0.03			CNC(=O)[C@H]1Cc2c([nH]c3ccccc23)[C@@H](c2ccc3c(c2)OCO3)N1C(=O)/C=C/c1ccccc1 [Example 12]

The next lines start with the molecule.

SMILES	IC50 [1] [µM]	melting point [°C]	IC50 [2] [µM]
CNC(=O)[C@H]1Cc2c([nH]c3ccccc23)[C@@H](c2ccc3c(c2)OCO3)N1C(=O)/C=C/c1ccc(Cl)cc1 [Example 13]	0.42		
COC(=O)[C@@H]1Cc2c([nH]c3ccccc23)[C@H](c2ccc3c(c2)OCO3)N1C [Example 6]	0.23		
CC(=O)N1[C@H](c2ccc3c(c2)OCO3)c2[nH]c3ccccc3c2C[C@@H]1C(=O)N1CCOCC1 [Example 9, (1R)-(+)-1-[benzo[1,3]dioxol-5-yl-3-(morpholine-4-carbonyl)-1,3,4,9-tetrahydro-β-carbolin-2-yl]-ethanone]	0.261		
CCCCNC(=O)N1[C@@H](c2cccnc2)c2[nH]c3ccccc3c2C[C@H]1C(=O)OCC [Example 4]			0.2
